Reference: patent US4228304A, “Novel cyclohexanecarboxylic acid and its derivatives” (Hisamitsu Pharmaceutical Co. Inc., priority 1977, dated 1980)

Assays:
[1] = Acute toxicity (mouse); conditions: in vivo
Description: (§1) Each test compound suspended in 0.5% tragacanth gum-saline was administered orally, subcutaneously or intraperitoneally to animals ddY strain mouse and Wistar strain rats. The 50% lethal dose and the 95% confidence limit were calculated by Litchfield-Wilcoxon's method from the death of animals in 3 weeks following administration.

[2] = Acute toxicity (rat); conditions: in vivo
Description: as §1

[3] = tested on: passive cutaneous anaphylaxis in rat; test: Homologeous passive cutaneous anaphylaxis in rat; type: in vivo, rat (Wistar strain); conditions: 100 mg/kg, orally; exuded pigment vs control
Description: (2) Homologeous passive cutaneous anaphylaxis in rat Each test compound suspended in 0.5% tragacanth gum-distilled water was administered orally to a group of five male Wistar strain rats (body weight 150-200 g). After one hour 0.1 ml of 5% anti-Dinitrophinol conpled Ascaris rat IgE serum-physiological sodium chloride solution was injected intradermally to dorsum of the rat. […] The animals were sacrificed by decapitation 30 minutes after the injection. Thereafter the skin of the animals were removed and the amount of the pigment exuded into the inflamed skin was determined. The percent inhibitions were calculated by the ratio of the amounts of exuded pigments to the control.

[4] = tested on: Picryl Chloride induced contact dermatitis; test: Picryl Chloride induced contact dermatitis; type: in vivo, mouse (ddY strain); conditions: Mus musculus, po; 100 mg/kg, orally; ear swelling 24 hours after second challenge
Description: (3) Picryl Chloride induced contact dermatitis
At first 0.1 ml of 7% picryl chloride-ethanol solution was applied to skin of the depilated abdomens (area 2.5×15 mm) of ddY-strain male mice (body weight 20-22 g). After one week each 0.02 ml of 1% picryl chloride-olive oil solution was applied topically to the ears of the mouse. […] After three days 0.1 ml of 7% picryl chloride-ethanol solution was applied again to the depilated abdomens of the mice. After one week, each 0.02 ml of 1% picryl chloride-olive oil solution per ear were applied topically to the bilateral ears, and at same time, the test compounds were administered orally. Immediately before and 24 hours after the second challenge, the thickness of the ears was measured and the swelling was calculated. The percent inhibitions were calculated by the ratio of the each swelling to the control.

[5] = tested on: lung fragment of guinea pig; test: Mediator (histamine) release on lung fragment of guinea pig; type: cell-based, guinea pig (Hartley strain); conditions: 10^-4 g/ml
Description: (4) Mediator release on lung fragment of guinea pig.
A group of Hartley strain male guinea pigs (body weight 250-300 g) were administered intraperitoneally anti-BPO-BGG IgE serum. The animals were sacrificed by decapitation, and those sensitized lungs were isolated for use. […] Following 10 minute incubation, the amount of the released histamine were determined by bioassay.

[6] = tested on: rat adjuvant polyarthritis; test: Effect on rat adjuvant polyarthritis; type: in vivo, rat (Sprague Dawley strain); conditions: oral daily: Compound No. 1 200 mg/kg, Ibuprofen 50 mg/kg, Prednisolone 0.5 mg/kg
Description: (5) Effect on rat adjuvant polyarthritis
A group of eight to ten male Sprague Dawley strain rats (body weight 240-280 g) were used. 0.1 ml of Complete Freuind's adjuvant (CFA, Mycobacterium butyricum, 100 mg/10 cc) was injected intradermally to the right hind sole.

[7] = Acute toxicity (rabbit); conditions: in vivo, po; female rabbit
[8] = Acute toxicity (dog); type: in vivo; conditions: in vivo, po; male dog
[9] = tested on: dog; test: Acute toxicity (dog); type: in vivo; conditions: female dog, p.o.; 30240 min

CC(C)CCC[C@H]1CC[C@@](C)(C(=O)O)CC1 [Compound No. 1, cis-4-isohexyl-1-methylcyclohexanecarboxylic acid]
LD50 at 504 h ([1]; ip, female mouse): 998 mg/kg
LD50 at 504 h ([1]; ip, male mouse): 1110 mg/kg
LD50 at 504 h ([1]; po, female mouse): 6390 mg/kg
LD50 at 504 h ([1]; po, male mouse): 5950 mg/kg
LD50 at 504 h ([1]; sc, female mouse): > 10000 mg/kg
LD50 at 504 h ([1]; sc, male mouse): > 10000 mg/kg
LD50 at 504 h ([2]; ip, female rat): 1690 mg/kg
LD50 at 504 h ([2]; ip, male rat): 2070 mg/kg
LD50 at 504 h ([2]; po, female rat): > 10000 mg/kg
LD50 at 504 h ([2]; po, male rat): > 10000 mg/kg
LD50 at 504 h ([2]; sc, female rat): > 10000 mg/kg
LD50 at 504 h ([2]; sc, male rat): > 10000 mg/kg
Inhibition [3]: 28%
inhibition in vivo at 100 mg/kg [4]: 49%
inhibition (released histamine) [5]: 24.2%
Swelling percent of left hind paw (non-treatment of CFA) ([6]; day 0): -1.3±1.8%
Swelling percent of right hind paw (treatment of CFA) ([6]; day 0): 118.1± 5.0%
Swelling percent of left hind paw (non-treatment of CFA) ([6]; day 1): -3.0±1.2%
Swelling percent of right hind paw (treatment of CFA) ([6]; day 1): 100.0± 5.3%
Swelling percent of left hind paw (non-treatment of CFA) ([6]; day 4): -0.8±2.0%
Swelling percent of right hind paw (treatment of CFA) ([6]; day 4): 255.4±13.8%
Swelling percent of left hind paw (non-treatment of CFA) ([6]; day 7): 4.5±3.3%
Swelling percent of right hind paw (treatment of CFA) ([6]; day 7): 216.3±12.8%
Swelling percent of left hind paw (non-treatment of CFA) ([6]; day 10): 11.8±2.4%
Swelling percent of right hind paw (treatment of CFA) ([6]; day 10): 173.8± 7.1%
Swelling percent of left hind paw (non-treatment of CFA) ([6]; day 14): 13.3±1.6%
Swelling percent of right hind paw (treatment of CFA) ([6]; day 14): 169.5± 8.0%
Swelling percent of left hind paw (non-treatment of CFA) ([6]; day 17): 13.2±1.7%
Swelling percent of right hind paw (treatment of CFA) ([6]; day 17): 166.0± 8.6%
Swelling percent of left hind paw (non-treatment of CFA) ([6]; day 21): 8.5±2.0%
Swelling percent of right hind paw (treatment of CFA) ([6]; day 21): 163.0±10.5%
LD50 at 504 h [7]: > 6000 mg/kg
LD50 at 504 h [8]: > 5000 mg/kg
LD50 [9]: > 5000 mg/kg
